Consider four compounds from patent US5281598A, “Piperazine derivatives” (Akzo N.V., priority 1992, dated 1994).

For data set [1], the target named is α1 adrenoceptor. The data set can be described thus: α1 adrenoceptor affinity, prazosin (PRA) binding.
Procedure: (§1) The activities are expressed as pKi values (-log Ki values; Ki being the binding constant). The sigma receptor binding was assessed by the 1,3-di-o-tolylguanidine (DTG) binding as described by Fox et al., Eur. J. Pharmacol., 193, 139-143, 1991. The α1 adrenoceptor affinity was assessed by the prazosin (PRA) binding as described by de Boer et al., Arzneim. Forsch., 40, 550-554, 1990.
Data set [2] addresses sigma receptor. The data set can be described thus: sigma receptor binding, 1,3-di-o-tolylguanidine (DTG) binding. The following applies: 1,3-di-o-tolylguanidine binding.
Procedure: as §1
The subject of data set [3] is α1 adrenoceptor. The data set can be described thus: α1 adrenoceptor activity of the prior art compounds (statement in background). Particulars: in words.
Data set [4] has as its system sigma receptor. Particulars: in words; disclosed in WO 91/09594; cited from earlier work.
For data set [5] the following is noted: in words; literature (Tamminga and Gerlach); cited from earlier work.

SMILES strings stand for the structures.

Consider `c1ccc(CCCN2CCN(c3ccccc3)CC2)cc1` [Compound 46 of WO 91/09594], for which, at α1 adrenoceptor [1], the “PRA pKi (-log Ki)” value is on record as 8.7. Besides, the “DTG pKi (-log Ki)” value at sigma receptor [2] was found to be 8.2. Further, the α1 adrenoceptor activity entry in the data set with α1 adrenoceptor [3] is on record as “possess α1 adrenoceptor activity”. Besides, in the data set with sigma receptor [4], the sigma receptor affinity entry is given as “displaying sigma receptor affinity”.

For `c1ccc(CCCCN2CCN(Cc3ccccc3)CC2)cc1` [Compound 79 of WO 91/09594], on α1 adrenoceptor [1], the “PRA pKi (-log Ki)” value came out at 7.4. The “DTG pKi (-log Ki)” value on sigma receptor [2] came out at 8.6. Moreover, the α1 adrenoceptor activity result in the data set with α1 adrenoceptor [3] was “possess α1 adrenoceptor activity”. In addition, in the data set on sigma receptor [4], the sigma receptor affinity result is given as “displaying sigma receptor affinity”.

Regarding `CN1CCN(C2=Nc3cc(Cl)ccc3Nc3ccccc32)CC1` [clozapine], the “induction of orthostatic hypotension” value in data set [5] was “induction of orthostatic hypotension”.

With `Cl.Cl.c1ccc(CCCN2CCN(CCOCc3ccccc3)CC2)cc1` [Compound of Example 1, 1-[2-(phenylmethoxy)ethyl]-4-(3-phenylpropyl)piperazine dihydrochloride], the “PRA pKi (-log Ki)” value at α1 adrenoceptor [1] turned out to be 5.7. Further, on sigma receptor [2], the “DTG pKi (-log Ki)” value turned out to be 8.7.
